In ChEMBL document CHEMBL5212743, “Selectivity Literature for EUbOPEN Chemogenomics Library wave 3” (2023):

How the values were obtained:
[1] = target: T1, Serine/threonine-protein kinase ULK2 (Homo sapiens) (UniProt Q8IYT8); assay: Selectivity interaction (Kinase panel (International centre for protein kinase profiling)) EUB0000627a ULK2; conditions: at 1 µM
T1 sequence (whole entry): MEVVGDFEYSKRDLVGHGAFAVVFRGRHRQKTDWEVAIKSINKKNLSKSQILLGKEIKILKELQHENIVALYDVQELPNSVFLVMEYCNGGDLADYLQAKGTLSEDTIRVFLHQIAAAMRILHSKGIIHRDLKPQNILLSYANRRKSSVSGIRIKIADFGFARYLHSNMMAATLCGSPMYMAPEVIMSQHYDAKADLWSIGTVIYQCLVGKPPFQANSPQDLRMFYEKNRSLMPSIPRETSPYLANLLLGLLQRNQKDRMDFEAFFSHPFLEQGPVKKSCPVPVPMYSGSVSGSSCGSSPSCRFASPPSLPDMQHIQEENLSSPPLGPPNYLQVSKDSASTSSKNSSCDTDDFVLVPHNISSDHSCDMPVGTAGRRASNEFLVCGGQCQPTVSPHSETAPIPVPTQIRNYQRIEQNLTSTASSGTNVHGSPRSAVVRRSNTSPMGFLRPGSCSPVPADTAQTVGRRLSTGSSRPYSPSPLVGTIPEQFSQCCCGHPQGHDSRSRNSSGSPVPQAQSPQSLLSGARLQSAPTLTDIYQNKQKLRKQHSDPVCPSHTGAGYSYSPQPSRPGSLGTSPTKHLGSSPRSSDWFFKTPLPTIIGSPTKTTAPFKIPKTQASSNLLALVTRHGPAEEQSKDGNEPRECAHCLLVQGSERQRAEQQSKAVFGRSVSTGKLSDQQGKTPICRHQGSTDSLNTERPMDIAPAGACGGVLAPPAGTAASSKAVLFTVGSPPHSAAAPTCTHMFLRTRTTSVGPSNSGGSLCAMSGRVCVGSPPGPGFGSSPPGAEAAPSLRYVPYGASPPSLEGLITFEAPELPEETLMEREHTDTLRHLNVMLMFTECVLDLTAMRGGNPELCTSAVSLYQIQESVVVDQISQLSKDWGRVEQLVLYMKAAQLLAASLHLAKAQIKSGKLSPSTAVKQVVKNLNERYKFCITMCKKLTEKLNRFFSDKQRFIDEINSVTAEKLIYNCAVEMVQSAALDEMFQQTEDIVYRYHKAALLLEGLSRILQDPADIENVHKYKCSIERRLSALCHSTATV

[2] = target: Serine/threonine-protein kinase 33 (Homo sapiens, UniProt Q9BYT3); assay: Selectivity interaction (Kinase panel (International centre for protein kinase profiling)) EUB0000627a STK33; conditions: at 1 µM
[3] = target: Adenosine receptor A2a (Homo sapiens) (UniProt P29274); assay: Selectivity interaction (Enzyme panel (kinases, GPCRs, HDACs, phosphatases)) EUB0000329a ADORA2A; conditions: at 10 µM
Adenosine receptor A2a (Homo sapiens), sequence (P29274 whole entry): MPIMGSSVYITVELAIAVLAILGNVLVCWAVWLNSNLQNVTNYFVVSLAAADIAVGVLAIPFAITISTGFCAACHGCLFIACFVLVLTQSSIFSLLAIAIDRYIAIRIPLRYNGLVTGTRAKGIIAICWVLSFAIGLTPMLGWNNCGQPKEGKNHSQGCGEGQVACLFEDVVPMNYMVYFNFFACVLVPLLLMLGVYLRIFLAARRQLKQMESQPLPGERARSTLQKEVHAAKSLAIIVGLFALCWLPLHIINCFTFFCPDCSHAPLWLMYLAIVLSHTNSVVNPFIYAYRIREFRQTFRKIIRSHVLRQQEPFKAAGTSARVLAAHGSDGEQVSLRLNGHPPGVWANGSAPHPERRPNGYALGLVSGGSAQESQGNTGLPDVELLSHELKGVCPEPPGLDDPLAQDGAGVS

[4] = target: T2, Gamma-aminobutyric acid receptor subunit alpha-1 (Homo sapiens) (UniProt P14867); assay: Selectivity interaction (GPCR panel (PDSP screen)) EUB0000329a GABRA1; conditions: at 10 µM
T2 sequence (whole entry): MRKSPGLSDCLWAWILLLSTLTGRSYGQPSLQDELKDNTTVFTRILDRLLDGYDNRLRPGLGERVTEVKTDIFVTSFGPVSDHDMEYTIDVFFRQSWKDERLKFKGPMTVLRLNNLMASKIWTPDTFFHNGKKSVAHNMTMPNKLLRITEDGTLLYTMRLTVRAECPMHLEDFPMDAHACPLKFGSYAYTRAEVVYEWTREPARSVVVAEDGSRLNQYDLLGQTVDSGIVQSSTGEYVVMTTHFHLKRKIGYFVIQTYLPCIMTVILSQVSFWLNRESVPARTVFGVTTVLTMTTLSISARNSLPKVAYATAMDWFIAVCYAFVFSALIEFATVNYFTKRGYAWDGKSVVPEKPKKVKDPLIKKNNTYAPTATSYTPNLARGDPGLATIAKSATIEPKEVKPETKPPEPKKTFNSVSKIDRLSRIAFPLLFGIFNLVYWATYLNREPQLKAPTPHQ

[5] = target: Serine/threonine-protein kinase Nek1 (Homo sapiens) (UniProt Q96PY6); assay: Selectivity interaction (KinomeScan (DiscoverX)) EUB0000711a NEK1; conditions: at 100 nM
[6] = target: Leucine-rich repeat serine/threonine-protein kinase 2 (Homo sapiens, UniProt Q5S007); assay: Selectivity interaction (KinomeScan (DiscoverX)) EUB0000711a LRRK2; conditions: at 100 nM
[7] = target: Serine/threonine-protein kinase 38-like (Homo sapiens, UniProt Q9Y2H1); assay: Selectivity interaction (KinomeScan (DiscoverX)) EUB0000711a STK38L; conditions: at 100 nM
[8] = target: Protein arginine N-methyltransferase 3 (Homo sapiens, UniProt O60678); assay: Selectivity interaction (HMT panel) EUB0000209b PRMT3; conditions: at 1 µM
[9] = target: Calcium/calmodulin-dependent protein kinase type IV (Homo sapiens) (UniProt Q16566); assay: Selectivity interaction (Kinase panel) EUB0000209b CAMK4; conditions: at 10 µM
[10] = target: Protein-tyrosine kinase 6 (Homo sapiens) (UniProt Q13882); conditions: at 1 µM
[11] = target: Phosphatidylinositol 4,5-bisphosphate 3-kinase catalytic subunit alpha isoform (Homo sapiens, UniProt P42336); conditions: at 1 µM
Phosphatidylinositol 4,5-bisphosphate 3-kinase catalytic subunit alpha isoform, sequence (P42336 whole entry, canonical isoform): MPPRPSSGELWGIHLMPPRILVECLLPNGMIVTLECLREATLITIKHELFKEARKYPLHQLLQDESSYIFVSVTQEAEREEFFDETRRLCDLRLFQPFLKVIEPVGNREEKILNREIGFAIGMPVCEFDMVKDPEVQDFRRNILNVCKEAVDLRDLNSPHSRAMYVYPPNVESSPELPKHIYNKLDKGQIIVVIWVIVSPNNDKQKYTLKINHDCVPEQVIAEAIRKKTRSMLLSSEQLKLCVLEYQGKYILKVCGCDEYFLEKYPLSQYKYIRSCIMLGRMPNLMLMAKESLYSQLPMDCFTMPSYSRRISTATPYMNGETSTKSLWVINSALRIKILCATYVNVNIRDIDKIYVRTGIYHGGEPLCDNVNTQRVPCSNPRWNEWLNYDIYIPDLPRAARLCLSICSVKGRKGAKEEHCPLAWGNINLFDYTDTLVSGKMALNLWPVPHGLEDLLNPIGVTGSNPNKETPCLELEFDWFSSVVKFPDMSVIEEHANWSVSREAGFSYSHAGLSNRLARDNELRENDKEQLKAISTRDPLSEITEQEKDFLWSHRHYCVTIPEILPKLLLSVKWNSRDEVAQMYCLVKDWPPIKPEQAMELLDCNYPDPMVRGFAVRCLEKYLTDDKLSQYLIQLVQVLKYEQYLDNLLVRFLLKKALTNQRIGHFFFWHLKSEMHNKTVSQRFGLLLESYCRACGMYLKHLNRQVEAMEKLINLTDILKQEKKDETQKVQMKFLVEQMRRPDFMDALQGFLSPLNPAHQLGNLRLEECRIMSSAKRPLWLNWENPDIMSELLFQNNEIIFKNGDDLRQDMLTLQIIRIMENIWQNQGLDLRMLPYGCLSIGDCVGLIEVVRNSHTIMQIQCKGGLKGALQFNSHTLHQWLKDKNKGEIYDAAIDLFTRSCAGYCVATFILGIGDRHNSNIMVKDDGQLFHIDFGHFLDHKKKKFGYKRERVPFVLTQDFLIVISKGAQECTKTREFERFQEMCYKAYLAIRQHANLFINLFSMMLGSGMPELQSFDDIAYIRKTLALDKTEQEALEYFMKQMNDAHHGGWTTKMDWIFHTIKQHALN

[12] = target: T3, Phosphatidylinositol 4,5-bisphosphate 3-kinase catalytic subunit delta isoform (Homo sapiens) (UniProt O00329); conditions: at 1 µM
T3 sequence (whole entry): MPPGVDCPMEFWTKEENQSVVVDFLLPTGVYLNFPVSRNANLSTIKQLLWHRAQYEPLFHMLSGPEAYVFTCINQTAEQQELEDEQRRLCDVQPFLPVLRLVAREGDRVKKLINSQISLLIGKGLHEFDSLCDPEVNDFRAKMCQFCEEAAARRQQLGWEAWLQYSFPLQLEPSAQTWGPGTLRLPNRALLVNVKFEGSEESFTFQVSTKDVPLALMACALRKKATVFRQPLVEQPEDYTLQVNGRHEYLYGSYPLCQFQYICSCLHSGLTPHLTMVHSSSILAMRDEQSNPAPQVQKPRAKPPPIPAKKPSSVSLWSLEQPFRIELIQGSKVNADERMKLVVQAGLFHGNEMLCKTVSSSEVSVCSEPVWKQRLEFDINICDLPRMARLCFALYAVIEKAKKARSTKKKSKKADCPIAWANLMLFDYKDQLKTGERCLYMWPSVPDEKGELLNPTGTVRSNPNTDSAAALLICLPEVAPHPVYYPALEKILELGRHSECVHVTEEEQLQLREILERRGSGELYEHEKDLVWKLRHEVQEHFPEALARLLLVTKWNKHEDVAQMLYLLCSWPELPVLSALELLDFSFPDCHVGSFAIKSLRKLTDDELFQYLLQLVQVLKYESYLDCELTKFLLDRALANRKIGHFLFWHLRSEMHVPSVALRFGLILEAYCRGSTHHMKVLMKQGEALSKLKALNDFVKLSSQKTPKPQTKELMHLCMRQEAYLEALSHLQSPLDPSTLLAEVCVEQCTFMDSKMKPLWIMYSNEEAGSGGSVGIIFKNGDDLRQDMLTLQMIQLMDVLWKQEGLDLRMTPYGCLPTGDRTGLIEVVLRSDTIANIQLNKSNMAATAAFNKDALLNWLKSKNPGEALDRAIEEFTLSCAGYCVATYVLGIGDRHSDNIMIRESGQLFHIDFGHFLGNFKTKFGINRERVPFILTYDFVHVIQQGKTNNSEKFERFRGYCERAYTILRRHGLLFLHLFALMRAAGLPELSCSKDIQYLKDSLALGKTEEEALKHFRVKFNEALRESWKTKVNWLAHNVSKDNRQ

[13] = target: Myosin light chain kinase family member 4 (Homo sapiens) (UniProt Q86YV6); assay: Selectivity interaction (KinomeScan (DiscoverX)) EUB0000132b MYLK4; conditions: at 1 µM
[14] = target: Epithelial discoidin domain-containing receptor 1 (Homo sapiens, UniProt Q08345); conditions: at 1 µM
Epithelial discoidin domain-containing receptor 1, sequence (Q08345 whole entry, the tested form may be a part): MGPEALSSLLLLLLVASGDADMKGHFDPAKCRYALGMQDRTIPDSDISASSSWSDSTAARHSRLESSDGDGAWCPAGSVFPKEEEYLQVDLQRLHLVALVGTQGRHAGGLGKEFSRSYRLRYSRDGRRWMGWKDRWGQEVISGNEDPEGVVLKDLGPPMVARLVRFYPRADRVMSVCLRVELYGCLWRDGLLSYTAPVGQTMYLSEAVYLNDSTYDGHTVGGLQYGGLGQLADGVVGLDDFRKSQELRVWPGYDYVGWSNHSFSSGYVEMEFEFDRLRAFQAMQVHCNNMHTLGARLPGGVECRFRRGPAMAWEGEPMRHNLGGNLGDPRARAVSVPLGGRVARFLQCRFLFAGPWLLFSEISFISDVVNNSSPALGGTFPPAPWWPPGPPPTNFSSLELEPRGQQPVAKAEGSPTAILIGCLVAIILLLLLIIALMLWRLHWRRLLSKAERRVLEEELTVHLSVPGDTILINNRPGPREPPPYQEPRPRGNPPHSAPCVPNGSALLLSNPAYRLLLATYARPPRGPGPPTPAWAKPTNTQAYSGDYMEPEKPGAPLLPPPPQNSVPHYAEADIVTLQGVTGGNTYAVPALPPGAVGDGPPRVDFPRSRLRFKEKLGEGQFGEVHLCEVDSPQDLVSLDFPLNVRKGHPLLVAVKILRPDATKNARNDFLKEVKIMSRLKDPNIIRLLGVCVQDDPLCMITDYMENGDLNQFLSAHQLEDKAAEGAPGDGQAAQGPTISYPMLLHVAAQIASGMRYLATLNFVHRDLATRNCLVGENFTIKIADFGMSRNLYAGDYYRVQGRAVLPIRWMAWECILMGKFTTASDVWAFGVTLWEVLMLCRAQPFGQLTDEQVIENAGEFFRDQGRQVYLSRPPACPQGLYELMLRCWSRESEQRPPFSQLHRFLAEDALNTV

[15] = target: Mast/stem cell growth factor receptor Kit (Homo sapiens, UniProt P10721); assay: (§1) Selectivity interaction (KinomeScan (DiscoverX)) EUB0000132b KIT; conditions: at 1 µM
Mast/stem cell growth factor receptor Kit, sequence (P10721 whole entry): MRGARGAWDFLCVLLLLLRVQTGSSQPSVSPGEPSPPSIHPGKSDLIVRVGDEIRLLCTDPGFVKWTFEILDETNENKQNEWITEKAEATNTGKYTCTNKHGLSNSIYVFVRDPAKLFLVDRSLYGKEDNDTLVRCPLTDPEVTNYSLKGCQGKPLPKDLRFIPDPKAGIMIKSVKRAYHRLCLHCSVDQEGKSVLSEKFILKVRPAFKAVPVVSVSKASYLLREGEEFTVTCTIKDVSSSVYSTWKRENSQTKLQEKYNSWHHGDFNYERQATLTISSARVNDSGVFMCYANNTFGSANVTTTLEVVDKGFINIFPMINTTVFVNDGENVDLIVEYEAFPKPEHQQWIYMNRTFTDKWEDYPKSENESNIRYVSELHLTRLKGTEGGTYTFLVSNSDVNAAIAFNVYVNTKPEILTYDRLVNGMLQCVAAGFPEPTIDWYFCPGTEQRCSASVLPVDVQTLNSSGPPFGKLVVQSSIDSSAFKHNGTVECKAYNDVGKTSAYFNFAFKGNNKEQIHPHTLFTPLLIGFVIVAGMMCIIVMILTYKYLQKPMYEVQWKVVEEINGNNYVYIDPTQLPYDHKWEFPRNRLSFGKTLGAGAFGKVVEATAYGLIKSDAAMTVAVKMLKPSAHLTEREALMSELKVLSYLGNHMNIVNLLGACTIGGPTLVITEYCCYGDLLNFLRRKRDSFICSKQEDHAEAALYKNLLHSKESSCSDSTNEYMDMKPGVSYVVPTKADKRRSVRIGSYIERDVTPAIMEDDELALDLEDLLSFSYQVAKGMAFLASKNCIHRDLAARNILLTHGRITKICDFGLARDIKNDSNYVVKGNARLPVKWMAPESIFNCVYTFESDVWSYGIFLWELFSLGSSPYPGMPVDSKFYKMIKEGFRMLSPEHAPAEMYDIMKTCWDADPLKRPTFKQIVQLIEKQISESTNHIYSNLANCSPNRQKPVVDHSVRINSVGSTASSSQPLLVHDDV

[16] = system: Mast/stem cell growth factor receptor Kit (Homo sapiens), P10721 [V559D]; assay: as §1; conditions: at 1 µM
Mast/stem cell growth factor receptor Kit (Homo sapiens), P10721 [V559D], sequence (P10721 whole entry V559D): as the sequence (P10721 whole entry) above, with V559D counted along it

[17] = target: Mitogen-activated protein kinase kinase kinase 20 (Homo sapiens) (UniProt Q9NYL2); assay: Selectivity interaction (KinomeScan (DiscoverX)) EUB0000132b MAP3K20; conditions: at 1 µM
[18] = target: Ribosomal protein S6 kinase alpha-6 (Homo sapiens) (UniProt Q9UK32); assay: Selectivity interaction (KinomeScan (DiscoverX)) EUB0000132b RPS6KA6; conditions: at 1 µM
[19] = target: Discoidin domain-containing receptor 2 (Homo sapiens) (UniProt Q16832); assay: Selectivity interaction (KinomeScan (DiscoverX)) EUB0000132b DDR2; conditions: at 1 µM
Discoidin domain-containing receptor 2 (Homo sapiens), sequence (Q16832 whole entry, the tested form may be a part): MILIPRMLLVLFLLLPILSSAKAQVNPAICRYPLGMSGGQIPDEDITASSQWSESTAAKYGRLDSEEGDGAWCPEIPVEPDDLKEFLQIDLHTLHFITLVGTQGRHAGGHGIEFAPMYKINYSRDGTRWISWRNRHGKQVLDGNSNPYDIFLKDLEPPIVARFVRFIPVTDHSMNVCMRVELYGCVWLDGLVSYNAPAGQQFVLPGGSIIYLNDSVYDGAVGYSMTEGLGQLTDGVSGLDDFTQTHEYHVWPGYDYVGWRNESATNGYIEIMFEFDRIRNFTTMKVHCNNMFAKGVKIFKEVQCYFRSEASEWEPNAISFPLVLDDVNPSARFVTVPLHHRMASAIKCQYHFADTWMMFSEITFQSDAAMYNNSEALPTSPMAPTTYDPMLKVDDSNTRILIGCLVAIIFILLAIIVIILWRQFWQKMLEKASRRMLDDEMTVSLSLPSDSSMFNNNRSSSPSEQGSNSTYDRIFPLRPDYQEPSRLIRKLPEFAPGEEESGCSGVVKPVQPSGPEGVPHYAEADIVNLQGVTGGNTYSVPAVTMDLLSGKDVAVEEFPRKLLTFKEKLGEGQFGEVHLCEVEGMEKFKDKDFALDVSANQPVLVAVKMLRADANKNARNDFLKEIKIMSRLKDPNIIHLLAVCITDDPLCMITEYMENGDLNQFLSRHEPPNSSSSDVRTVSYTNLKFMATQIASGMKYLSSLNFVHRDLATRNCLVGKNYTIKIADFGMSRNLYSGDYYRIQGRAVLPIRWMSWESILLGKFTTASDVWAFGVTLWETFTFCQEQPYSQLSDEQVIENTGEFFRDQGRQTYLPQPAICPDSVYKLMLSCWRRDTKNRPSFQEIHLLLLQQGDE

[20] = target: T4, Alpha-2B adrenergic receptor (Homo sapiens) (UniProt P18089); assay: Selectivity interaction (GPCR panel (PDSP screen)) EUB0000300bCl ADRA2B; conditions: at 10 µM
T4 sequence (whole entry): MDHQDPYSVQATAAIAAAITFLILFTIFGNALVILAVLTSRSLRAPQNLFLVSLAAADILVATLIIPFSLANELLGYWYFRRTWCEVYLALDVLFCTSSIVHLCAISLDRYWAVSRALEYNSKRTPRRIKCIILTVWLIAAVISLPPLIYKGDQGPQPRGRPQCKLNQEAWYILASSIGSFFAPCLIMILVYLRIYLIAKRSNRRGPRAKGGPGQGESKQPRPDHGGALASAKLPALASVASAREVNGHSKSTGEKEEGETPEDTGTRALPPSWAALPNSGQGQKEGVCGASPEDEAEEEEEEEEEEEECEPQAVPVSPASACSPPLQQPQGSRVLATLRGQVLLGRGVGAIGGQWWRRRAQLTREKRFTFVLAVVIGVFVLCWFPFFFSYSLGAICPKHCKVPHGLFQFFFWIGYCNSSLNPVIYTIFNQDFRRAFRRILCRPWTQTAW

[21] = target: T5, Alpha-1B adrenergic receptor (Homo sapiens, UniProt P35368); assay: Selectivity interaction (GPCR panel (PDSP screen)) EUB0000300bCl ADRA1B
T5 sequence (P35368 whole entry): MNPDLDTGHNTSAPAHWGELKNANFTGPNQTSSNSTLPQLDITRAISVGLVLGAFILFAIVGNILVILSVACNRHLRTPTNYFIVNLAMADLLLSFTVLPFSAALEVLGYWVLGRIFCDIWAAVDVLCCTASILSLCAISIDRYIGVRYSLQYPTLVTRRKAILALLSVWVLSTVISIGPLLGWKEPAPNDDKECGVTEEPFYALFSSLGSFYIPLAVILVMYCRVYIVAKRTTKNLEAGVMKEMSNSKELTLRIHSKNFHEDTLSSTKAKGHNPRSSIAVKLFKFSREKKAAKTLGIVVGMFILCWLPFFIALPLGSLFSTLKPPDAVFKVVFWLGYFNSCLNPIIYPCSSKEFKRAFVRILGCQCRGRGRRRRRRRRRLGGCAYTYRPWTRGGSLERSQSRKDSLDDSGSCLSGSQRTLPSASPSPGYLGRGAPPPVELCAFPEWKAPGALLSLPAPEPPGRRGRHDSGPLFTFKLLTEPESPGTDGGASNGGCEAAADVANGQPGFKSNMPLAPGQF

[22] = target: T6, Alpha-1A adrenergic receptor (Homo sapiens) (UniProt P35348); assay: (§2) Selectivity interaction (GPCR panel (PDSP screen)) EUB0000300bCl ADRA1A; conditions: at 10 µM
T6 sequence (whole entry): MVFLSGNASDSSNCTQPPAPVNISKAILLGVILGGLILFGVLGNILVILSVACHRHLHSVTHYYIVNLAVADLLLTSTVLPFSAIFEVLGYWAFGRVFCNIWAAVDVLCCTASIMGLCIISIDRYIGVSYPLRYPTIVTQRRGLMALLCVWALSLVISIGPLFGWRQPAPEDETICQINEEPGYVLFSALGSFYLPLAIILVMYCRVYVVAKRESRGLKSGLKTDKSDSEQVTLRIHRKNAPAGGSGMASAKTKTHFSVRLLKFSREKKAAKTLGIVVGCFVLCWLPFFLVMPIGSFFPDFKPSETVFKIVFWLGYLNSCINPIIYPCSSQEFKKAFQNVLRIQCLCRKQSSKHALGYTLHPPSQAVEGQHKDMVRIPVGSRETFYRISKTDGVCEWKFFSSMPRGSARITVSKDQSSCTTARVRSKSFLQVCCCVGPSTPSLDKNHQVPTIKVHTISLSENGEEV

[23] = target: Mitogen-activated protein kinase 6 (Homo sapiens) (UniProt Q16659); assay: Selectivity interaction (KinomeScan (DiscoverX)) EUB0000300bCl MAPK6; conditions: at 1 µM
Mitogen-activated protein kinase 6 (Homo sapiens), sequence (Q16659 whole entry): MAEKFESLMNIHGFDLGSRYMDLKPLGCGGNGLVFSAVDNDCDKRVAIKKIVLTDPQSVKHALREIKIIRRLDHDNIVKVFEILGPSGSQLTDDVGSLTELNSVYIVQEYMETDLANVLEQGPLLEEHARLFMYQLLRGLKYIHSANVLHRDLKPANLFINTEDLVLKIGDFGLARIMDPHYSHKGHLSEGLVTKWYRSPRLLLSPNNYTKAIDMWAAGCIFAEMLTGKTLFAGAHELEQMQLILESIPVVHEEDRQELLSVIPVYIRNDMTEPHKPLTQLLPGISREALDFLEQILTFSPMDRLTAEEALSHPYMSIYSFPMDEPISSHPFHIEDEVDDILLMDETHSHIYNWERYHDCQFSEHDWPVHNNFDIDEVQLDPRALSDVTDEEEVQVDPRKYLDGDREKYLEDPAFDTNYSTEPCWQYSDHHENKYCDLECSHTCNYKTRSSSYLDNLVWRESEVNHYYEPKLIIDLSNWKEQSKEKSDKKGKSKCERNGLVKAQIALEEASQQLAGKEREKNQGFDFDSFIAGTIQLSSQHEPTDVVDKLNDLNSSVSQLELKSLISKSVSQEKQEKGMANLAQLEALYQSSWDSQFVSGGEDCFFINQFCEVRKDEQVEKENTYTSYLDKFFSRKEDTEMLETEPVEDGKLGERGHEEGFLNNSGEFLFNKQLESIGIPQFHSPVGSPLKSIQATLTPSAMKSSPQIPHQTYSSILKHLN

[24] = target: Tyrosine-protein kinase receptor TYRO3 (Homo sapiens) (UniProt Q06418); assay: Selectivity interaction (KinomeScan (DiscoverX)) EUB0000300bCl TYRO3; conditions: at 1 µM
[25] = target: T7, Alpha-1A adrenergic receptor (Homo sapiens, UniProt P35348); assay: as §2
T7 sequence (P35348 whole entry): T6 sequence (whole entry)

SMILES: CCC(=O)Nc1cccc(Oc2nc(Nc3ccc(N4CCN(C)CC4)cc3OC)ncc2Cl)c1
- % of kinase activity [1]: 37%
- % of kinase activity [2]: 33%

SMILES: O=C(NNS(=O)(=O)c1ccccc1F)c1cc(F)cc(-c2ccccn2)c1
- % of inhibition [3]: 49%
- % of inhibition [4]: 75.7%

SMILES: O=C(NCCCC1CCCCC1)c1ccc(CNC(=O)c2cnn(-c3ccccc3)c2C(F)(F)F)cc1
- % of control [5]: 58%
- % of control [6]: 57%
- % of control [7]: 20%

SMILES: CCCc1cc(C)[nH]c(=O)c1CNC(=O)c1cc(-c2ccc(N3CCN(C(C)C)CC3)nc2)cc2c1cnn2C(C)C
- % activity remaining [8]: > 70%
- % of inhibition [9]: 20%

SMILES: C=CC(=O)N1CCC([C@@H]2CCNc3c(C(N)=O)c(-c4ccc(Oc5ccccc5)cc4)nn32)CC1
- % of inhibition [10]: 99%

SMILES: Cc1nc(-c2cn3c(n2)-c2ccc(-c4cnn(C(C)(C)C(N)=O)c4)cc2OCC3)n(C(C)C)n1
- % of control [11]: 98.6%
- % of control [12]: 97.9%

SMILES: Nc1c(C(=O)NCc2ccc(C(=O)NCCCC3CCCCC3)cc2)cnn1-c1ccccc1
- % of control [13]: 31%
- % of control [14]: 3%
- % of control [15]: 7.7%
- % of control [16]: 3%
- % of control [17]: 8.8%
- % of control [18]: 29%
- % of control [19]: 31%

SMILES: C[C@@H](c1cccc(CN)c1)n1cc(Cl)cc(C(N)=O)c1=N
- % of inhibition [20]: 80%
- Ki [21]: > 1.2 µM
- % of inhibition [22]: 84%
- % of control [23]: 0%
- % of control [24]: 33%
- Ki [25]: > 2.7 µM
